Assay results reported in patent US20160346202A1, “Composition for Vectorizing an Anti-Cancer Agent” (GUERBET, priority 2014, published 2016).

How the values were obtained:
[1] = Plasma kinetics of doxorubicin after TACE, VX2 rabbits; type: in vivo, New Zealand rabbits; conditions: intra-arterial injection 300 μl, mean (±SD)
Protocol: The tumor induction method described by Hong et al. (Clin Cancer Res 2006; 12 (8): 2563-2567) was used on New Zealand rabbits (NZ; supplier Charles River, France), anesthetized beforehand.
Fragments of VX2 tumor tissues are implanted (a fragment of 25 mg/per liver of NZ rabbit) under the hepatic capsule of the left lateral lobe of the rabbits. These rabbits with a tumor in the left hepatic lobe will subsequently be referred to as “VX2 rabbits”.
19 days after having carried out the tumor induction method, the TACE is carried out. Thus, the products (volume: 300 μl) are injected into the pre-anesthetized animals, using a catheter guided by fluoroscopy (X-ray imaging) via the femoral artery and brought up to the artery feeding the hepatic tumor (injection only where selectivity has been achieved). The TACE is carried out in a dedicated room and under conditions close to clinical practice (interventional radiology).
Blood samples of 300 μl at times 0, 5, 15, 30 or 45 minutes after intra-arterial injection were taken after catheterization of the ear vein. 200 μl of plasma after centrifugation were then recovered and heparinized for assaying the anti-cancer agent. A study of the plasma kinetics of the anti-cancer agent was thus carried out.
The plasma doxorubicin assay was carried out in the heparinized plasma of VX2 rabbits under the same conditions as those described above. […]

[2] = Plasma kinetics of the anti-cancer agent after intra-arterial (TACE) injection, rat with N1-S1 tumor; type: in vivo, female Sprague-Dawley rats; conditions: female, Sprague-Dawley, rat N1-S1 model
Protocol: The tumor induction method described in Garin et al. (Lab Anim. 2005 July; 39(3): 314-20) was used on female Sprague-Dawley rats (supplier Dépré or Janvier, France), anesthetized beforehand.
6×10^6 N1-S1 rat hepatocellular carcinoma tumor cells (deposited at ATCC under the reference CRLL-1604™, also called Novikoff cells) suspended in 100 μl of IMDM medium (Iscove's Modified Dulbecco's Medium) were administered under the hepatic capsule of the left lateral lobe of the female rats, by slow injection over the course of approximately 50 seconds. […]
The plasma doxorubicin assay was carried out in the heparinized rat plasma by high performance liquid chromatography (or HPLC), the chromatograph being equipped with a fluorescence detector. […] 10 μl of the extract were analyzed by reverse-phase HPLC on a Zorbax 300SB-C18 4.6×150 mm, 3.5 μm column (with a Zorbax 300SB-C18 4.6×12.5 mm, 5 μm precolumn) and fluorimetric detection (excitation wavelength 480 nm, emission wavelength 560 nm).
The analysis was carried out over the course of 30 minutes with a 5 mM ammonium acetate, pH 3.5/acetonitrile gradient. […] When the area of the HPLC peak was greater than the upper limit of quantification, 5 μl were injected instead of 10 μl in order to obtain an area of doxorubicin included in the range. […]

[3] = Visual stability (phase separation) of the emulsion; type: physicochemical; conditions: comparative emulsions not in accordance with the invention
Protocol: The emulsion according to the invention is advantageously stable. The term “stable emulsion” is intended to mean an emulsion having, under conventional temperature (20° C.) and atmospheric pressure (1 bar) conditions and within 24 hours following its preparation, a visual phase separation of less than 5% by volume relative to the total composition in emulsion form. […] Visual phase separation manifests itself when a solution no longer appears uniform to the eye, i.e. when the appearance of at least two phases is observed.

Compound | concentration at 5 min ([1]; New Zealand, rabbit, plasma, read-out: Plasma concentration of the anti-cancer agent 5 minutes after injection) | Plasma concentration of the anti-cancer agent 5 minutes after injection ([1]; listed as Control doxorubicin alone given IA) | concentration at 45 min ([2]; 45 min after intra-arterial injection, read-out: Plasma doxorubicin concentration at 45 min) | concentration at 5 min ([2]; intra-arterial injection 100 μl, 0.5 mg anti-cancer agent, average) | Observations: phase separation / stability [3]
COc1cccc2c1C(=O)c1c(O)c3c(c(O)c1C2=O)C[C@@](O)(C(=O)CO)C[C@@H]3O[C@H]1C[C@H](N)[C@H](O)[C@H](C)O1 [Control doxorubicin alone, doxorubicin] | 563 ± 282 ng/mL | 563 ± 282 ng/mL | 112 ng/mL | 2450 ng/mL | 
Span® 20 |  |  |  |  | underwent phase separation immediately after they were prepared
Span® 83 |  |  |  |  | underwent phase separation immediately after they were prepared
Span® 85 |  |  |  |  | underwent phase separation immediately after they were prepared
